Experimental data: patent US20090325954A1, “2-BENZIMIDAZOLYL-6-MORPHOLINO-4-PHENYLPYRIMIDINE DERIVATIVES AS PI3K AND MTOR INHIBITORS FOR THE TREATMENT OF PROLIFERATIVE DISORDERS” (priority 2006, published 2009)

Columns and labels:
p110α Type Ia human PI3K = target: T1, p110α Type Ia human PI3K (Homo sapiens, UniProt P42336); experiment: In vitro PI3K enzyme assay (AlphaScreen), Test (a); assay type: biochemical; conditions: read-out: IC50 versus p110α Type Ia human PI3K
T1 construct: full length DNA of each of the p110α, p110β and […] Type Ia human PI3K p110 isoforms; 6-His; made in house
T1 sequence (P42336 whole entry, canonical isoform): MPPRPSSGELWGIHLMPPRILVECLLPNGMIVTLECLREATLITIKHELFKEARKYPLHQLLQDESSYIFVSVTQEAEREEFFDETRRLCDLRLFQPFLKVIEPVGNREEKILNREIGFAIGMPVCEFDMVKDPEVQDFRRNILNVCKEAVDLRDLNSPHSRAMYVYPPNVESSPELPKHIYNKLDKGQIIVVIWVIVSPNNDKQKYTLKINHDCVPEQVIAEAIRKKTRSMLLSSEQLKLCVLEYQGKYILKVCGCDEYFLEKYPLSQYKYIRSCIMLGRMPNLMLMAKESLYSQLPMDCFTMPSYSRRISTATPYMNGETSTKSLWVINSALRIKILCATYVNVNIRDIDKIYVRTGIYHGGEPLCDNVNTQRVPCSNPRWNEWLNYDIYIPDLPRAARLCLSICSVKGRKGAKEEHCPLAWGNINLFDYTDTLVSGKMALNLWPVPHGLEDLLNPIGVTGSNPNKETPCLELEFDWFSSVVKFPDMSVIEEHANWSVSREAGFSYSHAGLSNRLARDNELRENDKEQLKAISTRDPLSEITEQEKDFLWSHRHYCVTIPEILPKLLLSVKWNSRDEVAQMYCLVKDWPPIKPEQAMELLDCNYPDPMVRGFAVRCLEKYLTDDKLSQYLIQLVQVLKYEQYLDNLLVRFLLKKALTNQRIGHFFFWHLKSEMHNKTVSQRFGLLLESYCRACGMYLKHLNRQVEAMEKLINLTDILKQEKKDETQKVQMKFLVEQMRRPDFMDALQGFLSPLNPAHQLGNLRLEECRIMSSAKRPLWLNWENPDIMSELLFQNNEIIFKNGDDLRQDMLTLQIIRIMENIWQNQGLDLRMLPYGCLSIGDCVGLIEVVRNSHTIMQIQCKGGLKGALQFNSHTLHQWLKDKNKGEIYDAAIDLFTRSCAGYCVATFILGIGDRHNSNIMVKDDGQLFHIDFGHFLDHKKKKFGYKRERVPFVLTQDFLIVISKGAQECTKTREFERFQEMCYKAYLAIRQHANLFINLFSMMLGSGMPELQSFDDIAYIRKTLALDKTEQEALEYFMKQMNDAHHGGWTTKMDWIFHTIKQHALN
T1 sequence (P27986 whole entry partner, canonical isoform): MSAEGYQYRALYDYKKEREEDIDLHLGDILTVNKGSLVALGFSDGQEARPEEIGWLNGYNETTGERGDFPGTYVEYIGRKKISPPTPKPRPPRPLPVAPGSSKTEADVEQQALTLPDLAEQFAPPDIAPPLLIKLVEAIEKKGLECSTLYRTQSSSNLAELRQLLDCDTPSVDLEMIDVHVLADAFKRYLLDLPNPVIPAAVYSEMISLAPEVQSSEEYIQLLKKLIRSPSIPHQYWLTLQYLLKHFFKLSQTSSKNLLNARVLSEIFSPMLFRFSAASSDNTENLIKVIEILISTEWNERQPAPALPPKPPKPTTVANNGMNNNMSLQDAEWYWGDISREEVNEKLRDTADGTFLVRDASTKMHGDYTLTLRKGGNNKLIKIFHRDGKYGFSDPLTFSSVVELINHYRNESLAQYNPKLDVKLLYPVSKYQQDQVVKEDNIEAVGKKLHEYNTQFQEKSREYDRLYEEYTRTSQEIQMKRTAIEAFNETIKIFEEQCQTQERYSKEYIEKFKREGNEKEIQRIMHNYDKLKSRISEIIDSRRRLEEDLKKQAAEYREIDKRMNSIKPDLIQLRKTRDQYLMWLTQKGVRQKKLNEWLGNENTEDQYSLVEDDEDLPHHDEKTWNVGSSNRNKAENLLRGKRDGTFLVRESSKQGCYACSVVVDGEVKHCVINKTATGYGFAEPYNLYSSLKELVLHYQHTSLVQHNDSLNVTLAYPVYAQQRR
Description: The assay used AlphaScreen technology (Gray et al., Analytical Biochemistry, 2003, 313: 234-245) to determine the ability of test compounds to inhibit phosphorylation by recombinant Type I PI3K enzymes of the lipid PI(4,5)P2.
DNA fragments encoding human PI3K catalytic and regulatory subunits were isolated from cDNA libraries using standard molecular biology and PCR cloning techniques. The selected DNA fragments were used to generate baculovirus expression vectors. In particular, full length DNA of each of the p110α, p110β and […] Type Ia human PI3K p110 isoforms (EMBL Accession Nos. HSU79143, S67334, Y10055 for p110a, p110β and p110δ respectively) were sub-cloned into a pDEST10 vector (Invitrogen Limited, Fountain Drive, Paisley, UK). The vector is a Gateway-adapted version of Fastbac1 containing a 6-His epitope tag. […]
Biotinylated-DiC8-PI(3,4,5)P3 (50 nM; Cell Signals Inc., Catalogue No. 107), recombinant purified GST-Grp1 PH protein (2.5 nM) and AlphaScreen Anti-GST donor and acceptor beads (100 ng; Packard Bioscience Limited, Station Road, Pangbourne, Berkshire, UK, Catalogue No. 6760603M) were added and the assay plates were left for about 5 to 20 hours at room temperature in the dark. The resultant signals arising from laser light excitation at […] were read using a Packard AlphaQuest instrument. […]

[1] = test system: phosphorylation of Serine 473 in Akt; experiment: In vitro phospho-Ser473 Akt assay in MDA-MB-468 cells, Test (c); assay type: cell-based; conditions: Homo sapiens, read-out: IC50, inhibition of phosphorylation of Serine 473 in Akt
Protocol: This assay determines the ability of test compounds to inhibit phosphorylation of Serine 473 in Akt as assessed using Acumen Explorer technology (TTP LabTech Limited, Royston, Herts, SG8 6EE, UK), a plate reader that can be used to rapidly quantitate features of images generated by laser-scanning.
A MDA-MB-468 human breast adenocarcinoma cell line (LGC Promochem, Teddington, Middlesex, UK, Catalogue No. HTB-132) was routinely maintained at 37° C. with 5% CO2 up to a confluency of 70-90% in DMEM containing 10% FCS and 1% L-glutamine.
For the assay, the cells were detached from the culture flask using ‘Accutase’ (Innovative Cell Technologies Inc., San Diego, Calif., USA; Catalogue No. AT104) using standard tissue culture methods and resuspended in media to give 5.5×10^4 cells per ml. Aliquots (90 μl) were seeded into each of the inner 60 wells of a black ‘Costar’ 96-well plate (Corning Inc., NY, USA; Catalogue No. 3904) to give a density of ˜5000 cells per well. Aliquots (90 μl) of culture media were placed in the outer wells to prevent edge effects. [An alternative cell handling procedure involved the maintenance of the cells in a ‘SelecT’ robotic device (The Automation Partnership, Royston, Herts SG8 5WY, UK). Cells were resuspended in media to give 5×10^4 cells per ml. Aliquots (100 μl) were seeded into the wells of a black ‘Costar’ 96-well plate.] […]

| IC50 (p110α Type Ia human PI3K) [nM] | IC50 [1] [nM] | Structure (SMILES) |
| --- | --- | --- |
| ~300 | ~100 | CN(C)CCNC(=O)c1ccc(-c2cc(N3CCOCC3)nc(-n3c(C(F)F)nc4ccccc43)n2)cc1 [Example 9, 2-(2-difluoromethylbenzimidazol-1-yl)-4-{4-[N-(2-dimethylaminoethyl)carbamoyl]phenyl}-6-morpholinopyrimidine] |
| ~300 | ~20 | CNCC(=O)Nc1ccc(-c2cc(N3CCOCC3)nc(-n3c(C(F)F)nc4ccccc43)n2)cc1 [Example 5, 2-(2-difluoromethylbenzimidazol-1-yl)-6-morpholino-4-(4-sarcosylaminophenyl)pyrimidine] |
